Test results: paper PMC6627374, “Effects of the Pentapeptide P33 on Memory and Synaptic Plasticity in APP/PS1 Transgenic Mice: A Novel Mechanism Presenting the Protein Fe65 as a Target” (International Journal of Molecular Sciences, 2019)
Several values for one entry are separate records, joined by “and”; a condition that tells them apart may be missing. Identical values can stand only once. Where a SMILES comes first, the peptide text is derived from it.

Columns and labels:
[1] = target: T1, Fe65-WW domain (WW domain of Fe65) (Homo sapiens, UniProt O00213); assay: ITC binding to Fe65-WW; parameters: species or system human and mouse (WW domain identical); conditions: 310 K
T1 construct: made in house; host or cells: chemical solid-phase peptide synthesis (Fmoc, Rink Amide AM resin); no expression host
T1 sequence (O00213 253-285 limits assumed): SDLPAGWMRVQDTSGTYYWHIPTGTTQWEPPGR
Description: Synthesis of acetyl-Fe65-WW, acetyl-Pin1-WW, and the control PPPPP (structures involved in Figure 2) was carried out on a Rink Amide AM (0.3 mmol∙g^−1) resin using Fmoc chemistry and activation with HATU in the presence of DIPEA. Cleavage was achieved by a treatment with TFA/H2O/triisopropylsilane/1,4-dithio-DL-threitol/phenol (90:5:3:1:1) at room temperature (RT). TFA was removed in vacuo, the peptides were then precipitated using cold, dry diethyl-ether, dissolved in ACN/H2O and lyophilized.
Isothermal titrations were performed using a Microcal VP-ITC (Malvern Instruments, Malvern, UK) microcalorimeter. Binding experiments were carried out in degassed phosphate-buffered saline (PBS) at pH 7.4. The concentrations of Fe65-WW and Pin1-WW were normalized for the peptide contents. In one titration experiment, 10-μL portions of the ligand-containing solution (P33 or PPPPP) were injected from a computer-controlled 300-μL microsyringe at intervals of 300 s into the solution of the WW domain (Fe65-WW or Pin1-WW), dissolved in the same buffer as for the ligand. The rev of the microsyringe was set to 307 rpm. Measurements were repeated twice at 310 K. The starting concentrations of Fe65-WW and Pin1-WW in the cell were 83.5 and 81.4 μM, respectively, and the concentrations of the stock solutions containing P33 or PPPPP in the syringe were 1.006 and 1.056 mM, respectively. Control experiments were performed by injecting P33 or PPPPP into the cell containing plain buffer without the WW domain, with results achieved via subtracting the dilution heats from those measured in the presence of the WW domain.

[2] = system: APP/PS1 mice and C57BL/6 wild-type (WT) mice; assay: Morris water maze (MWM), spatial learning and memory; format: in vivo, mouse; conditions: for intersection area with vehicle group (bootstrap 2D contours): vehicle vs P33, 90% contours
Description: For this study, three-month-old male and female WT and APP/PS1 mice (n = 37) were used. Four groups were defined: WT-vehicle (physiological saline) (male n = 4; female n = 6), WT-P33 (male n = 6; female n = 5), APP/PS1-vehicle (male n = 3; female n = 5), and APP/PS1-P33 (male n = 6; female n = 2). Animals were subjected to intraperitoneal (i.p.) injections of P33 (5 mg∙kg^−1) for five days per week, over a course of six months. The mice were kept in groups under constant temperature (23 ± 0.5 °C), lighting (12-h/12-h light/dark cycle, lights on at 7:00 a.m.), and humidity (~50%). Standard mouse chow and tap water were supplied ad libitum. All behavioral experiments were performed in the light period. Handling was done daily at the same time.
The experiment lasted for five days, and was conducted on every occasion in the light period. Mice were tested twice every day when they were allowed to swim until they found the platform. […] Four different starting points were used during the experiment; starting points were changed randomly during the tests. Trajectories of the mice were recorded with a video camera fixed on the ceiling, equipped with the software EthoVision XT8 (Noldus Information Technology, The Netherlands, 2011). The tracking system calculated the time to reach the platform, swimming speed, length of the swimming path (distance), and percentage time spent in each of the four virtual quadrants during the trials.
Behavioral data were analyzed by mixed ANOVA, followed by Fisher’s LSD post hoc tests for multiple comparisons. The classical and modified ANOVA data evaluation methods applied for the raw measurements could detect only some significant effects without explaining their positions. Convenient post hoc analysis methods, like Student’s t-statistics, need a Gaussian distribution of the analysis data. Additionally, only the probability of the false positive decision error can be set up, and the probability of the false negative decision error remains unknown. Therefore, we developed and used nonparametric statistics. The one-response variable data (swimming times) were used to generate a two-variable model: (1) the reciprocal of the slope of the fitted straight line between the swimming time and the days (its negative values close to zero indicate an improvement in the memory and learning functions of the mice from day to day); (2) swimming time data of the last day (closeness to zero indicates an effective learning process). The two variables were combined, and evaluating them together gave more reliable multiple statistical results. […]

C[C@@H](N)C(=O)N1CCC[C@@H]1C(=O)N[C@H](C)C(=O)N1CCC[C@@H]1C(=O)N[C@H](CCC(=O)O)C(N)=O [P33] (HELM PEPTIDE1{[dA].[dP].[dA].[dP].[dE].[am]}$$$$V2.0)
selectivity of binding, Fe65-WW over Pin1-WW (in words) ([1]; PBS pH 7.4): can bind selectively to the Fe65-WW domain
ΔH ([1]; PBS pH 7.4): 0.082 ± 0.001 kcal/mol
stoichiometric factor N ([1]; PBS pH 7.4, 1:1 [P33]/[Fe65-WW] complex): 1.14 and 1.14 ± 0.01
Kd ([1]; PBS pH 7.4, Fe65-WW 83.5 μM in cell, P33 1.006 mM in syringe, measurements repeated twice, read-out: dissociation constant Kd): 4.68 ± 0.04 µM
permutation test of swimming times vs randomness (in words) ([2]; APP/PS1-P33, 50,000 resamples, 1/m and yend): significant improvement, as the randomness of the measurements was drastically decreased
intersection area with vehicle group (bootstrap 2D contours) ([2]; APP/PS1 groups, % of total areas of both, 50,000 resamples): approximately 2%
latency to find the platform, effect of P33 (in words) ([2]; APP/PS1 mice, 5 mg∙kg^−1 i.p., six months, MWM five days): seemed to have a positive effect on their learning abilities
intersection area with vehicle group (bootstrap 2D contours) ([2]; WT groups, % of total area of P33 treatment (vehicle 32%), 50,000 resamples): 89%
